Reference: ChEMBL document CHEMBL1152560, “Substituted 2-arylbenzothiazoles as kinase inhibitors: hit-to-lead optimization” (Bioorg Med Chem, 2009)

Key:
[1] = target: Mitogen-activated protein kinase 11 (Homo sapiens) (UniProt Q15759); test: Residual activity of p38beta at 0.1 uM by microplate scintillation counting
[2] = target: Wee1-like protein kinase (Homo sapiens) (UniProt P30291); test: Residual activity of WEE1 at 1 uM by microplate scintillation counting
[3] = target: Casein kinase II subunit alpha' (Homo sapiens) (UniProt P19784); test: Residual activity of CK2alpha2 at 1 uM by microplate scintillation counting
[4] = target: Casein kinase I isoform gamma-1 (Homo sapiens) (UniProt Q9HCP0); test: Residual activity of CK1gamma1 at 10 uM by microplate scintillation counting
[5] = target: T1, Eukaryotic translation initiation factor 2-alpha kinase 3 (Homo sapiens) (UniProt Q9NZJ5); test: Residual activity of EIF2AK3 at 10 uM by microplate scintillation counting
T1 sequence (whole entry): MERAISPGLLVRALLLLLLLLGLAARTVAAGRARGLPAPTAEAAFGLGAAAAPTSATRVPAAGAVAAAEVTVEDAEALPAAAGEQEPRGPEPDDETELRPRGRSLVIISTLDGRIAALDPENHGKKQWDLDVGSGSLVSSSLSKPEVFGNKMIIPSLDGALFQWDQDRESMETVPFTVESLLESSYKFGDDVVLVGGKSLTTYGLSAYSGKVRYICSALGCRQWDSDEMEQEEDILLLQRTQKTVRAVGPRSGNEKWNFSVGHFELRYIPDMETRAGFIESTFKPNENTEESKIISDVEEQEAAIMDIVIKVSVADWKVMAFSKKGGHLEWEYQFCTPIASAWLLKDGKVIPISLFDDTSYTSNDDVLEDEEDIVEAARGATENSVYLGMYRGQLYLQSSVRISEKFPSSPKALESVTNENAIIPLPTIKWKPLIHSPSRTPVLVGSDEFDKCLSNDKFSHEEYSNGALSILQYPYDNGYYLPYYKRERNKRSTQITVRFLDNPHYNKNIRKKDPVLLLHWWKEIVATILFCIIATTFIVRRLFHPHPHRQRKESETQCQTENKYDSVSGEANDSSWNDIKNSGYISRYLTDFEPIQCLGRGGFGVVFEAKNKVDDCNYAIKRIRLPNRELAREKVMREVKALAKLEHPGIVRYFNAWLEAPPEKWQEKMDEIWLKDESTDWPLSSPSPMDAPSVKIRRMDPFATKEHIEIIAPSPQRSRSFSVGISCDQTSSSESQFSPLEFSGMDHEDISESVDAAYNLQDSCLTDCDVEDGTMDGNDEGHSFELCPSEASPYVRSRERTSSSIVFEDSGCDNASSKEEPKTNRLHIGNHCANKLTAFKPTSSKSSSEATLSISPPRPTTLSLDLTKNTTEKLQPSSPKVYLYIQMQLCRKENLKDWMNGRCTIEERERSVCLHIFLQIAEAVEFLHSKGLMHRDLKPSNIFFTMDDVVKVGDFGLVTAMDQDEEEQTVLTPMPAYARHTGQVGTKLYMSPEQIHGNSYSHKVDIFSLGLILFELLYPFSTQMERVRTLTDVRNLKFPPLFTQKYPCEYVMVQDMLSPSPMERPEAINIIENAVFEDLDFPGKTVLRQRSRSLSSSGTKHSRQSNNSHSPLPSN

[6] = target: Tyrosine-protein kinase ABL2 (Homo sapiens) (UniProt P42684); test: Residual activity of ABL2 at 10 uM by microplate scintillation counting
[7] = target: SRSF protein kinase 2 (Homo sapiens) (UniProt P78362); test: Residual activity of SRPK2 at 1 uM by microplate scintillation counting
[8] = target: Serine/threonine-protein kinase 16 (Homo sapiens) (UniProt O75716); test: Residual activity of TSF1 at 10 uM by microplate scintillation counting
[9] = target: T2, Inhibitor of nuclear factor kappa-B kinase subunit alpha (Homo sapiens) (UniProt O15111); test: Residual activity of IKKalpha at 10 uM by microplate scintillation counting
T2 sequence (whole entry): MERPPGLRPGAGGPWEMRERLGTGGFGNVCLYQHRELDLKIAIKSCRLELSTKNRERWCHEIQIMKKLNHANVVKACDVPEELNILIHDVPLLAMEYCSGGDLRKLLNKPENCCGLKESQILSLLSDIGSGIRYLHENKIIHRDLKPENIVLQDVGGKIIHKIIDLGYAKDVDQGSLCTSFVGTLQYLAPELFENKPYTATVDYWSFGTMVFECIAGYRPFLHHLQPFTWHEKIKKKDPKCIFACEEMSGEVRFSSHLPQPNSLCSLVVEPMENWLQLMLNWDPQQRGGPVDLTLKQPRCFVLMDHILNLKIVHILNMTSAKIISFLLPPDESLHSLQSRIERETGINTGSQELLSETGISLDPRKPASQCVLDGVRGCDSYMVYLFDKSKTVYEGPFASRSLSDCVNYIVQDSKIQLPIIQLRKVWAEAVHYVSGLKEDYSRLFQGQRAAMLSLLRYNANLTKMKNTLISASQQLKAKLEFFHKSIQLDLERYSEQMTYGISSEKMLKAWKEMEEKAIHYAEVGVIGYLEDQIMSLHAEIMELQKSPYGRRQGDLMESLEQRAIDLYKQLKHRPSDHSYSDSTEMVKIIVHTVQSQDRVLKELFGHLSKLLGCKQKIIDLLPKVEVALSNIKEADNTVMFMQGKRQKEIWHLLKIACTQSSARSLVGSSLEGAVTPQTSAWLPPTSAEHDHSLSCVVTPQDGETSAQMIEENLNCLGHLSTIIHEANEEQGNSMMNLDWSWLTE

Sequence of Tyrosine-protein kinase ABL2 (Homo sapiens) (P42684 whole entry): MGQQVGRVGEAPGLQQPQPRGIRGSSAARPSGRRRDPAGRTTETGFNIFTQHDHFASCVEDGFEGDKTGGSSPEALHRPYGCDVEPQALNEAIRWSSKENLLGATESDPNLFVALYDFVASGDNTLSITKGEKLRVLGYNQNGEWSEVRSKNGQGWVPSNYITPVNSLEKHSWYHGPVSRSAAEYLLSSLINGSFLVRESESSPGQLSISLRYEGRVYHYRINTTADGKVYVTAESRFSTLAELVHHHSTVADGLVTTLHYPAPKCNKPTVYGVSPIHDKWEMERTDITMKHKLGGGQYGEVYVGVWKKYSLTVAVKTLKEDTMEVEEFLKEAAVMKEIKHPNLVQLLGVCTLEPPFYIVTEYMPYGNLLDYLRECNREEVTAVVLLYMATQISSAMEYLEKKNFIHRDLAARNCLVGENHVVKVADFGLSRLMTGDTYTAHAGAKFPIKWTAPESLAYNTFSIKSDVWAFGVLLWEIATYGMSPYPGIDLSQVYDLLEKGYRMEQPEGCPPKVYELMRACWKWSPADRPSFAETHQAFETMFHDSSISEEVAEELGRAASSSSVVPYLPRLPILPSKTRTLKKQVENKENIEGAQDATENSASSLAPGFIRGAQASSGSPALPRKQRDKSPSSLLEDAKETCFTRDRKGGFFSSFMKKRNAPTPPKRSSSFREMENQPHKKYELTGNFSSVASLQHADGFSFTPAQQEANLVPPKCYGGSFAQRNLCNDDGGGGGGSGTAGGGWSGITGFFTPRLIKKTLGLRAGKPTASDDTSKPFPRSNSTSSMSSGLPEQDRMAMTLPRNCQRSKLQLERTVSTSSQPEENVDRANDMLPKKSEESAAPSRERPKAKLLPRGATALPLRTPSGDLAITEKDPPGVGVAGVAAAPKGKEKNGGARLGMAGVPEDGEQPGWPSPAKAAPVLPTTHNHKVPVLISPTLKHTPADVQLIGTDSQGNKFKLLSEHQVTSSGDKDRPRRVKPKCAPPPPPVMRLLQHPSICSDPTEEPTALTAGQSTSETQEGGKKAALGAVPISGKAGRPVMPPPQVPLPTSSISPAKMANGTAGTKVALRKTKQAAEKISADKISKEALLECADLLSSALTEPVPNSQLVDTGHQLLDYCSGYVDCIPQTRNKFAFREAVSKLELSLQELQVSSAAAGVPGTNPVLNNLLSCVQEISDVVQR
Sequence of Wee1-like protein kinase (Homo sapiens) (P30291 whole entry, looked up): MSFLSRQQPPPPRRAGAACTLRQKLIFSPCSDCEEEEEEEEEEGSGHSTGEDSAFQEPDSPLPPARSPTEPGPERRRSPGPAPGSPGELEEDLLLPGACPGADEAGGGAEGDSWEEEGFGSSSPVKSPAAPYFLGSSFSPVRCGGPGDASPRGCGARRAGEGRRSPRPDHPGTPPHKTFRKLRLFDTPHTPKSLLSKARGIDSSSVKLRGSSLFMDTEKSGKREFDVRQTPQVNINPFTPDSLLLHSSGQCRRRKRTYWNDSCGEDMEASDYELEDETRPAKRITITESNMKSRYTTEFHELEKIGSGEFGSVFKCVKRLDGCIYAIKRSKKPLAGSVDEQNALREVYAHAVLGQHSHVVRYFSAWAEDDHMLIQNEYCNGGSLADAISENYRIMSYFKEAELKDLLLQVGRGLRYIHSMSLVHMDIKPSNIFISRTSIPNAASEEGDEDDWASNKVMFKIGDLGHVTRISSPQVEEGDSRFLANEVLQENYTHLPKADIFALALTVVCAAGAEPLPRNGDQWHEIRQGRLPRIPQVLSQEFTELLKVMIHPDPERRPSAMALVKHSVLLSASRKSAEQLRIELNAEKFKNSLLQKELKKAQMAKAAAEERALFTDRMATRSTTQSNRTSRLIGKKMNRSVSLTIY
Sequence of Casein kinase I isoform gamma-1 (Homo sapiens) (Q9HCP0 whole entry, looked up, canonical isoform): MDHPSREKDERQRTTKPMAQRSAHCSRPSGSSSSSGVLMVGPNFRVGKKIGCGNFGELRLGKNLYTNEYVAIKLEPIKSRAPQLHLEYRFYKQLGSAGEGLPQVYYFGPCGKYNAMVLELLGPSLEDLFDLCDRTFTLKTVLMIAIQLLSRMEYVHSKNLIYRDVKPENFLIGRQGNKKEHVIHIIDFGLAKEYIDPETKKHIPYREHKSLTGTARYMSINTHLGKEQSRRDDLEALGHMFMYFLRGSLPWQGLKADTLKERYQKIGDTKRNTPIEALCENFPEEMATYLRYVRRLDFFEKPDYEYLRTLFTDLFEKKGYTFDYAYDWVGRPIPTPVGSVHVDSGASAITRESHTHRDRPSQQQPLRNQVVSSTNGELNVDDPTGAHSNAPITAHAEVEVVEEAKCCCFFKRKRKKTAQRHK
Sequence of Casein kinase II subunit alpha' (Homo sapiens) (P19784 whole entry, looked up, canonical isoform): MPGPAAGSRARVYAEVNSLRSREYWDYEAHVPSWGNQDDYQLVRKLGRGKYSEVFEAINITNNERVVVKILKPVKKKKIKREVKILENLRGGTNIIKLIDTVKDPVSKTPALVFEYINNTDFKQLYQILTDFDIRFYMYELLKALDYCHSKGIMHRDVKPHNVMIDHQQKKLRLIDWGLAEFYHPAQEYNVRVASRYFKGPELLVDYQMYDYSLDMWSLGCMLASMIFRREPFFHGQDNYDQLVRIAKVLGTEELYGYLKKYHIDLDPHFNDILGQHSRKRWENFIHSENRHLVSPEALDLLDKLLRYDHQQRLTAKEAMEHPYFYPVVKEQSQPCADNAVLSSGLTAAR
Sequence of Serine/threonine-protein kinase 16 (Homo sapiens) (O75716 whole entry): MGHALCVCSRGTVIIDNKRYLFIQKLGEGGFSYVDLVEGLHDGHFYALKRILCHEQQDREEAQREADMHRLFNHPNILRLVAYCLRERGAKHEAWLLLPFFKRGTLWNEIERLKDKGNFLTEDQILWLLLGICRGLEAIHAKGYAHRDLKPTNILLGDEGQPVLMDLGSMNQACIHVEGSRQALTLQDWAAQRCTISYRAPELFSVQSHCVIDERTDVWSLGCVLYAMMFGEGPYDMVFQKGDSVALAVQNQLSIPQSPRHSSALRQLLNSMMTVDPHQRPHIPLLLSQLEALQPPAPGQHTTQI
Sequence of SRSF protein kinase 2 (Homo sapiens) (P78362 whole entry, looked up): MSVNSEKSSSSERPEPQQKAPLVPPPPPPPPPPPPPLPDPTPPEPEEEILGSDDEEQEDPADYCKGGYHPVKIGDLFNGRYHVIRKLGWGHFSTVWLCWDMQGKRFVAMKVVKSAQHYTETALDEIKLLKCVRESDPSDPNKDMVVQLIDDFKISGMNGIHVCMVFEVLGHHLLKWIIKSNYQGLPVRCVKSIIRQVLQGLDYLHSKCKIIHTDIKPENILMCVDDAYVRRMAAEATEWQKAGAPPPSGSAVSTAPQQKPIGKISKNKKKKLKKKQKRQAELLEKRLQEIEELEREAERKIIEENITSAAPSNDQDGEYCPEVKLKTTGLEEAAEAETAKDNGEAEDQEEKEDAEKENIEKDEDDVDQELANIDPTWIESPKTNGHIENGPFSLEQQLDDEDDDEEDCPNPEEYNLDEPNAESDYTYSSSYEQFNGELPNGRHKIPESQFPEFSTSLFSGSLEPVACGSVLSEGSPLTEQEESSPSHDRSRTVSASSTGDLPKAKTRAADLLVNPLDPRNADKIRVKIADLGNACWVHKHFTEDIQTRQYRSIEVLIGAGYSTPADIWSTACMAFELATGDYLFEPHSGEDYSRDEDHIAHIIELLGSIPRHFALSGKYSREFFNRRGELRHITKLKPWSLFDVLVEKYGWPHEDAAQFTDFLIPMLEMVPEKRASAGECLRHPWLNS
Sequence of Mitogen-activated protein kinase 11 (Homo sapiens) (Q15759 whole entry): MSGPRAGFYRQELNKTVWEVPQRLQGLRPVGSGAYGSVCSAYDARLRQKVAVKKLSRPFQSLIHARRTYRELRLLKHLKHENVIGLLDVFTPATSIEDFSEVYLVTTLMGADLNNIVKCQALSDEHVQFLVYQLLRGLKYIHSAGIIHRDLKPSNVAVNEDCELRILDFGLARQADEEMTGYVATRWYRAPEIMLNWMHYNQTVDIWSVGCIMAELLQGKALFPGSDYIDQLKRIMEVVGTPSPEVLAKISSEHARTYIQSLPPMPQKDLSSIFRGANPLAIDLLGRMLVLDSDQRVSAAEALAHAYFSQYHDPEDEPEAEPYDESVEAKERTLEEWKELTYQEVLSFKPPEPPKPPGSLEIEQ

residual activity [1] [%] | residual activity [2] [%] | residual activity [3] [%] | residual activity [4] [%] | residual activity [5] [%] | residual activity [6] [%] | residual activity [7] [%] | residual activity [8] [%] | residual activity [9] [%] | SMILES
90 | 99 | 96 | 256 | 256 | 170 | 115 | 66 | 130 | COc1cc2c(Oc3ccc(-c4nc5ccccc5s4)cc3)ncnc2cc1OCCCN1CCN(C)CC1
105 | 101 | 89 | 229 | 155 | 93 | 107 | 59 | 135 | COc1cc2c(Oc3ccc(-c4nc5ccccc5s4)cc3F)ncnc2cc1OCCCN1CCN(C)CC1
104 | 84 | 88 | 200 | 239 | 147 | 97 | 56 | 122 | COc1cc2c(Oc3ccc(-c4nc5ccccc5s4)cc3)ncnc2cc1OCCCN1CCCC1
